Assay results: patent US5912161A, “Enzymes for the production of 2-keto-L-gulonic acid” (priority 1996, dated 1999)

Key:
[1] = target: T1, Corynebacterium sp. (ATCC 31090) 2,5-DKG reductase A, wild type, SEQ ID NO:1 (Corynebacterium sp., UniProt P06632); test: Kinetic characterization of purified wild-type 2,5-DKG reductase A (NADPH oxidation at 340 nm); assay type: biochemical; conditions: wild-type enzyme, 50 mM tris, pH 7.0, 0.2 mM NADPH, 25° C.
T1 construct: made in house; host or cells: Acetobacter cerinus
T1 sequence (P06632 whole entry): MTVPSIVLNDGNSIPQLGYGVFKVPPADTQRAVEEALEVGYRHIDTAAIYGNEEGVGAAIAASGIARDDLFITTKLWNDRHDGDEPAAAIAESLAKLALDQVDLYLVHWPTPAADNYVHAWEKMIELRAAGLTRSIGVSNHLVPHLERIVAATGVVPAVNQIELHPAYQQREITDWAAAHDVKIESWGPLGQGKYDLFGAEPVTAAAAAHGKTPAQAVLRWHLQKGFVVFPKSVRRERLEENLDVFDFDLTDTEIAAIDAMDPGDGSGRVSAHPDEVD
Protocol: (§1) The preparations of wild-type and mutant Q192R 2,5-DKG reductase A enzymes were characterized kinetically as to their ability to reduce the substrate 2,5-DKG to 2-KLG. Assays were done in 1 ml total volume of 50 mM tris, pH 7.0, containing 0.2 mM NADPH, a constant amount of enzyme ([…]) and amounts of substrate varying from 2 to 14 mM. The assays were done at 25° C., and the rate of substrate reduction was measured spectrophotometrically by measuring the loss of absorbance at 340 nm wavelength (which is indicative of the oxidation of the cofactor NADPH to NADP+).
(§2) The data were analyzed according to the well-known Michaelis equation to determine the kinetic parameters Vmax and Km using the Enzfit software package (Biosoft, Cambridge, UK) on a Epson desktop computer.

[2] = target: T2, Corynebacterium sp. 2,5-DKG reductase A mutant Q192R (arginine for glutamine at position 192) (Corynebacterium sp., UniProt P06632, Q192R); test: Kinetic characterization of purified mutant Q192R 2,5-DKG reductase A (NADPH oxidation at 340 nm); assay type: biochemical; conditions: 50 mM tris, pH 7.0, 0.2 mM NADPH, 25° C.
T2 construct: made in house; host or cells: Acetobacter cerinus
T2 sequence (P06632 whole entry Q192R): as the sequence (P06632 whole entry) above, with Q192R counted along it
Protocol: as §1, §2

SMILES: O=C(O)C(=O)[C@@H](O)[C@H](O)C(=O)CO [2,5-DKG, 2,5-diketo-D-gluconic acid]
- specificity constant (kcat/Km) [1]: 140 M⁻¹ s⁻¹
- Vmax for the 2,5-DKG substrate ([1]; substrate 2 to 14 mM): 7.8 μmoles per minute per milligram of protein
- Km ([1]; substrate 2 to 14 mM, read-out: Km or Michaelis constant): 28 mM
- specificity constant (kcat/Km) [2]: 335 M⁻¹ s⁻¹
- Km ([2]; substrate 2 to 14 mM): 21 mM
- Vmax for the 2,5-DKG substrate ([2]; substrate 2 to 14 mM): 14.0 μmoles per minute per milligram of protein
